Each structure is given as a SMILES string.

One data set has as its system osteoclasts (OCs). Nature of the data set: OC survival assay (number of OCs after 24-hour incubation). In kind it is cell-based. As to conditions: number of OCs as % of DMSO control. The source says:
FIGS. 5A-5H: Inhibition of bone resorption by an inhibitor of Rac1 activation by Dock5. (FIG. 5A) Principle of the yeast exchange assay used to identify inhibitors of Dock5 exchange activity. Wild type Rac1 is fused to LexA DNA binding domain (LexA) and its effector Kinectin (Kin) to GAL4 activation domain (GAD). Expression of Dock5-DHR2 activates Rac1, which binds to kinectin, leading to the expression of his3 and then yeast […] for histidine. Inhibitors of Dock5-DHR2 revert Rac1 activation. (FIG. 5B) Growth curves of yeasts expressing Rac1 and Kinectin with (open triangles) and without (dots) Dock5-DHR2, in medium complemented (plain lines) or not (dotted lines) with histidine. […] (FIG. 5F) Number of OCs (OC) after a 24-hour incubation with the indicated concentrations of C21, expressed as a % of DMSO control (0 μM C21). […]
Preparations were mounted in Mowiol 40-88 (Sigma) and imaged with Zeiss Axioimager Z2 microscope with Coolsnap HQ2 camera for fluorescence and Coolsnap color Cf camera using Zeiss 40× PLAN-NEOFLUAR 1.3 oil DIC or Zeiss 20× PLAN-APOCHROMAT 0.8 or Zeiss 10× EC PLAN-NEOFLUAR 0.3. […] OC circularity was measured using ImageJ. OCs were counted manually in 96-well plates stained to reveal DNA and TRAP activity, except in FIG. 5F where they were counted automatically using a Cellomics Arrayscan VTI (Thermo Scientific). […]

Another data set deals with T1, GEF TrioN (Homo sapiens, UniProt O75962).
T1 construct: expressed in transfected cells; host or cells: 293T cells
Nature of the data set: Active (GTP-bound) Rac1 pull-down in 293T cells expressing GFP-fused TrioN. The data set is classed as cell-based. The note with it: HEK293T cells, treated for 1 hour, 1% DMSO, western blot. The source says:
(§1) FIGS. 5A-5H: Inhibition of bone resorption by an inhibitor of Rac1 activation by Dock5. (FIG. 5A) Principle of the yeast exchange assay used to identify inhibitors of Dock5 exchange activity. Wild type Rac1 is fused to LexA DNA binding domain (LexA) and its effector Kinectin (Kin) to GAL4 activation domain (GAD). Expression of Dock5-DHR2 activates Rac1, which binds to kinectin, leading to the expression of his3 and then yeast […] for histidine. Inhibitors of Dock5-DHR2 revert Rac1 activation. (FIG. 5B) Growth curves of yeasts expressing Rac1 and Kinectin with (open triangles) and without (dots) Dock5-DHR2, in medium complemented (plain lines) or not (dotted lines) with histidine. (FIG. 5C) Structure of N-(3,5-dichlorophenyl)benzensulfonamide (C21). […] (FIG. 5F) Number of OCs (OC) after a 24-hour incubation with the indicated concentrations of C21, expressed as a % of DMSO control (0 μM C21). […] To activate Rac1, OCs at day 4 of differentiation were starved overnight in the presence of 2% serum, stimulated with 100 ng/ml M-CSF or lifted and replated onto vitronectin-coated plates for 30 minutes prior to lysis, and active Rac1 levels were measured G-LISA kit according to manufacturer's instructions (Cytoskeleton).
For orientation: In western blotting, separated proteins are transferred to a membrane and probed.

In the next data set the test system is B16F10 melanoma cells. Put plainly: Bone metastasis model, B16F10 melanoma cells expressing luciferase in C57B1/6 mice. As to conditions: 15 mg/d/kg intraperitoneal every day for 12 days; measured at days 7, 10 and 12. In kind it is in vivo, mouse. The source says:
The metastatic tumor cells in the bone matrix produce factors that directly or indirectly stimulate osteoclast differentiation and bone resorbing activity. In return, by resorbing it, the osteoclasts liberate growth factors embedded within the bone matrix that will stimulate the proliferation of metastatic cells. […] C21 being an efficient inhibitor of bone resorption, it was further assayed for its ability to slow down metastatic cell proliferation within the bone marrow. B16-F10 cells are derived from a C57B1/6 mouse melanoma and have a strong tropism for the bone. They are classically used as a model for bone metastases.
19 C57B1/6 mice received an injection of 10^5 B16F10 melanoma cells expressing luciferase in the left ventricle, 9 mice received the C21 compound (test group), 15 mg/d/kg solubilized in 100 μl of 5% EtOH and 4% solutol, every days for 12 days, as an intraperitoneal injection, and the other 10 mice (control group) received 100 μl of 5% ethanol/4% solutol vehicle solution.
The proliferation of B16F10 cells was followed by their bioluminescence, measured at days 7, 10 and 12 after injection of the cells (FIG. 20).

A further data set concerns the target T2, Dock5-DHR2 (Mus musculus, UniProt B2RY04).
T2 construct: Dock5 DHR2 domain (aminoacids E1119 to L1667) was cloned into pEGFP (Clontech) or myc tagged in pRs426Met (21); expressed in transfected cells; host or cells: HEK-293T cells
Put plainly: Active (GTP-bound) Rac1 pull-down in 293T cells expressing GFP-fused Dock5-DHR2. In kind it is cell-based. The note with it: HEK293T cells, treated for 1 hour, 1% DMSO, western blot.
Description: as §1

T2 sequence (B2RY04 1119-1667): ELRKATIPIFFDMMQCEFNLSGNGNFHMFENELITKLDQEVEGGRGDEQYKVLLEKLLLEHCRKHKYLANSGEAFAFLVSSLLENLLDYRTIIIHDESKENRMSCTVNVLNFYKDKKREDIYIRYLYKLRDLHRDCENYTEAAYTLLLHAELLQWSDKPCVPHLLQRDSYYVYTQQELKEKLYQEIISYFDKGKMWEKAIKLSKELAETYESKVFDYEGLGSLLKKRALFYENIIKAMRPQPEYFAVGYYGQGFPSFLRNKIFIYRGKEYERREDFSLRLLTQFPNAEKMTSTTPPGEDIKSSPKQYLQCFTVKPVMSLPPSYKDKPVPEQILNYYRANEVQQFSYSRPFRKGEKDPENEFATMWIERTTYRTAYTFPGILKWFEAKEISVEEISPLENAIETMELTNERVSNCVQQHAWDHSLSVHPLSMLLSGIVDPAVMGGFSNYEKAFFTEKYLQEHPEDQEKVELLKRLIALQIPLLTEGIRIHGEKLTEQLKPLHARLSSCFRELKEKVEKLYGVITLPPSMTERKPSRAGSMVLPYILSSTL

Regarding `O=S(=O)(Nc1cc(Cl)cc(Cl)c1)c1ccccc1` [C21, N-(3,5-dichlorophenyl)benzenesulfonamide], in the data set on osteoclasts (OCs), the “Concentrations provoking OC death” value is listed as “above 25 μM”. Besides, at GEF TrioN, the “Rac1 activation by the GEF TrioN” value is given as “no effect”. In the data set on B16F10 melanoma cells, the “Proliferation of B16F10 cells, bioluminescence in the tibia” value was “markedly slowed down”. For the same compound, on Dock5-DHR2, the “Activation of Rac1 by Dock5-DHR2” value was “efficiently inhibits”.
